Data: article PMC11705955, “Lack of activity of HIV-1 integrase strand-transfer inhibitors on recombinase activating gene (RAG) activity at clinically relevant concentrations” (Microbiology Spectrum, 2024)

What was measured:
[1] = molecular target: recombinant HIV-1 integrase; conditions: read-out: Target IC50 for integrase; cited from earlier work
[2] = molecular target: T1, recombinant human core RAG1 (AA387-1011)/core RAG2 (AA1-387) in the presence of HMGB1 (Homo sapiens, UniProt P15918+P55895); assay: Biochemical RAG DNA cleavage assay (gel-based, dsDNA 12RSS/23RSS substrate); conditions: for IC50: 25 nM RAG1-RAG2, 575 nM HMGB1, 10 nM dsDNA, 5 mM MgCl2, 1 h 37°C, no serum; for Inhibitory activity against RAG1/RAG2 cleavage: clinically relevant / supratherapeutic concentrations
T1 construct: made in house; host or cells: RAG1/RAG2 co-expressed in Expi293F GnTI human cells; HMGB1 in E. coli BL21DE3
T1 sequence (P15918 387-1011): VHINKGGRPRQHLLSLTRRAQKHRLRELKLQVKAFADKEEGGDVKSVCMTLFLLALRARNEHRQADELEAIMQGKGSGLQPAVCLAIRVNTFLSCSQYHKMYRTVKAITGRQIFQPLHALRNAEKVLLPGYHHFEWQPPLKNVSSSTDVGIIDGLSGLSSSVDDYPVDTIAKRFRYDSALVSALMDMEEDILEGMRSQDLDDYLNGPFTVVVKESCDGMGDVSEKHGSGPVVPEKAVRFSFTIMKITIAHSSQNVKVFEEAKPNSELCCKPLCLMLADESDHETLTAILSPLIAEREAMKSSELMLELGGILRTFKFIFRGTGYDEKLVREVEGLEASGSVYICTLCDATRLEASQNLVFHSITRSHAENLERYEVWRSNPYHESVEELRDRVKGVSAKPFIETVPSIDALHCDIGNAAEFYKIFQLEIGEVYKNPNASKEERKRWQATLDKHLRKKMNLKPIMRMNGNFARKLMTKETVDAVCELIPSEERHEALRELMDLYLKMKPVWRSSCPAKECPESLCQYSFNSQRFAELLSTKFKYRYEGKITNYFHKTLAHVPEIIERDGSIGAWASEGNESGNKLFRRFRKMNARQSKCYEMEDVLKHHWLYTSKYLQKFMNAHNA
T1 sequence (P55895 1-387): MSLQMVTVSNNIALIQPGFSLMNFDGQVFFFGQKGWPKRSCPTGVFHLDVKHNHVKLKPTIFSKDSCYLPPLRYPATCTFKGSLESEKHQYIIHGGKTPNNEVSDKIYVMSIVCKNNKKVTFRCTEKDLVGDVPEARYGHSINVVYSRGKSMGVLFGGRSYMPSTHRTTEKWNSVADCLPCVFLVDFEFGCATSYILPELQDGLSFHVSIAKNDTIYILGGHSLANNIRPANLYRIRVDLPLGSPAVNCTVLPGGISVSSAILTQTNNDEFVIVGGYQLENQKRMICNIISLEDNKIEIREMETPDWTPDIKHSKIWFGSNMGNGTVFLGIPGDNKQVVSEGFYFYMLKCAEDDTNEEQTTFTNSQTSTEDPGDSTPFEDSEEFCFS
Text: To directly observe the potential inhibition of RAG1/RAG2, we measured the effect of INSTIs on DNA cleavage by RAG1/RAG2 in the presence of HMGB1. This biochemical system utilizes pre-assembled recombinant human core RAG1 (AA387-1011)/core RAG2 (AA1-387) in the presence of excess truncated HMGB1 (AA1-163) and a linear dsDNA RSS substrate, using gel electrophoresis and a fluorescent dye to monitor cleavage products (Fig. 2A) ([24]). The dsDNA RSS substrate, containing both the 12RSS and 23RSS, was designed to have the different cleavage products resolved via gel electrophoresis. RAG1/RAG2 can singly cleave either the 12RSS or the 23RSS, or both, leading to potentially five different products in the reaction (Fig. 2B). HMGB1 orients RAG1/RAG2 for proper binding to the RSS substrate ([16]). We quantified the activity of RAG as the percentage of substrate conversion to a specific cleaved product, as separated by agarose gel electrophoresis and determined by the DNA-binding fluorescent dye. With the 569-bp substrate, a single cleavage of the 12RSS results in a 492-bp dsDNA and a 77-bp hairpin. Cleavage of the 23RSS alone produces a 433-bp dsDNA and a 136-bp hairpin. Successful cleavage of both RSSs results in a 356-bp dsDNA and both of the 77- and 136-bp hairpins. For the RAG activity analysis, we measured the amount of double cleaved product (356 bp) in relation to the amount of substrate (569 bp) at the end of the reaction. The optimal concentrations of RAG1/RAG2, HMGB1, and MgCl2 were determined through titration (Fig. S2). Because there is no direct RAG1/RAG2 inhibitor previously characterized, we used suramin, a polyanionic compound commonly used as a non-specific inhibitor for DNA/RNA binding or processing proteins as a control for inhibition ([25], [26]).
Prior to the cleavage assay, compounds at the designated concentrations were spotted into 96-well plates using the Tecan Digital D300e (Tecan, Mannedorf, Switzerland). RAG1/RAG2 was incubated with HMGB1 and MgCl2 on ice for at least 15 min in a reaction buffer (25-mM 3-(N-morpholino)propanesulfonic acid [MOPS], pH 7.0, 50-mM KCl, and 2-mM DTT). After the initial incubation, the enzyme solution was added to the compound plates and incubated for an additional 15 min at room temperature. dsDNA substrate in reaction buffer was added to the plates to initiate the reaction. The final conditions of the reaction are 25-nM RAG1–RAG2 complex, 575-nM HMGB1, 10-nM dsDNA substrate, and 5-mM MgCl2. After 1 h at 37°C, reactions were quenched by the addition of final concentrations of 0.19% SDS, 45.5-µg/mL Proteinase K, and 60-mM EDTA.
Glycerol was added to a final concentration of 7.6% in each sample, and samples were loaded onto non-denaturing 6% Tris–borate–EDTA (TBE) gels in 1× TBE buffer. The samples were run at 100 V for 1.5 h, and gels were stained with 1× SYBR Gold in 1× TBE for 20 min. The stained gels were imaged with an Amersham Typhoon Biomolecular Imager.
The gel images were analyzed using ImageQuant software (Cytiva). The densities of the 569-bp-length substrate and fully cleaved 356-bp-length product were quantified. The product density was divided by the sum of substrate and product bands to obtain a percent product value. These calculated values were subtracted from a negative control (pre-quenched reaction where EDTA was added before reaction was initiated) and then normalized to the DMSO-treated control. The normalized data were plotted against concentration using GraphPad Prism (version 9.3; GraphPad Software, San Diego, CA, USA).

[3] = cited from earlier work; for Human clinical free Cmax: Cmax corrected for protein binding
[4] = test system: RAG1/RAG2; conditions: cited from earlier work; for Effect on RAG binding or cleavage at the RSS: EVG 50–200 μM, RAL up to 200 µM
[5] = clinical concentrations; cited from earlier work
[6] = test system: murine RAG1/RAG2; set-up: method as in PMID 11756686; conditions: read-out: IC50 on RAG1/RAG2 in vitro; cited from earlier work

For `O=C(NCc1c(F)cc(F)cc1F)c1cn2c(c(O)c1=O)C(=O)N1[C@H]3CC[C@H](C3)O[C@@H]1C2` [BIC, bictegravir], the IC50 [1] is listed as 7.5 ± 0.3 nM, the IC50 [2] is listed as over 500 nM and the “Inhibitory activity against RAG1/RAG2 cleavage” value [2] is listed as “do not show inhibitory activity”. For the same compound, the “Human clinical free Cmax” value [3] was 34 nM.
For `C[C@H]1CO[C@@H]2Cn3cc(C(=O)NCc4ccc(F)cc4F)c(=O)c(O)c3C(=O)N12` [CAB, cabotegravir], the IC50 [1] is given as 3 nM, the IC50 [2] is given as over 500 nM and the “Inhibitory activity against RAG1/RAG2 cleavage” value [2] is given as “do not show inhibitory activity”. For the same compound, the “Human clinical free Cmax” value [3] was 25 nM.
For `C[C@@H]1CCO[C@H]2Cn3cc(C(=O)NCc4ccc(F)cc4F)c(=O)c(O)c3C(=O)N12` [DTG, dolutegravir], the “Decrease of DNA binding and cleavage by RAG1” value ([4]; DTG 200–500 μM) is given as 50%–75%, the IC50 [2] is given as over 500 nM and the “Human clinical free Cmax” value [3] is given as 58 nM. For the same compound, the Cmax ([3]; at clinical dosage of Table 1 (EVG with 150 mg cobicistat)) was 8300 nM and the Free drug fraction [5] was 0.70%.
In the case of `COc1cc2c(cc1Cc1cccc(Cl)c1F)c(=O)c(C(=O)O)cn2[C@H](CO)C(C)C` [EVG, elvitegravir], the “Effect on RAG binding or cleavage at the RSS” value [4] is given as “inhibition of RAG cleavage at the RSS”, the IC50 [2] is given as over 500 nM and the “Inhibitory activity against RAG1/RAG2 cleavage” value [2] is given as “do not show inhibitory activity”. The “Human clinical free Cmax” value [3] was 22 nM and the Free drug fraction [5] was 0.48%.
In the case of `Cc1nnc(C(=O)NC(C)(C)c2nc(C(=O)NCc3ccc(F)cc3)c(O)c(=O)n2C)o1` [RAL, raltegravir], the “Effect on RAG binding or cleavage at the RSS” value [4] is given as “no effect on binding or cleavage”, the IC50 [2] is given as over 10000 nM and the “Inhibitory activity against RAG1/RAG2 cleavage” value [2] is given as “do not show inhibitory activity”.
For `O=C(/C=C(\O)c1nnn[nH]1)c1c[nH]c2ccc(Cl)cc12` [p8, 5-CITEP], the IC50 [6] is listed as 200000 nM and the IC50 [2] is listed as 58200 ± 5600 nM.
